The source of these data is article PMC12040169 (PLOS Biology, 2025).

The data set in a line: in vitro. The conditions noted are these: human, hela cells, % viability.
For `COc1ccc(N2CCN(c3cc(-c4cccc5ccccc45)ncn3)CC2)cc1OC` [CBK091022], the viability at 28.5 h, 10 µM turned out to be 43.4%. Next, `COc1ccc(N2CCN(c3cc(-c4cccc(NC(C)=O)c4)ncn3)CC2)cc1OC` [CBK091029]: 96.4%; `COc1ccc(Nc2cc(-c3cccc(N)c3)ncn2)c(C)c1` [CBK091035]: 97.1%. Consider `COc1ccc(Nc2cc(-c3cc4ccccc4o3)ncn2)c(C)c1` [CBK091040], for which the viability at 28.5 h, 10 µM stood at 87.7%. Next, `COc1ccc(Nc2cc(-c3ccc(SC)cc3)ncn2)c(C)c1` [CBK091042]: 89.2%; `CC(=O)c1ccc(-c2cc(Nc3ccc(O)cc3C)ncn2)s1` [CBK091052]: 115%. Take `Cc1cc(O)ccc1Nc1cc(-c2ccc3c(c2)OCO3)ncn1` [CBK091053]: the viability at 28.5 h, 10 µM came to 92.6%. As to `Cc1cc(O)ccc1Nc1cc(-c2cc3ccccc3s2)ncn1` [CBK091057], the viability at 28.5 h, 10 µM came to 87%. With `O=C(CN1CCN(c2cc(-c3ccsc3)ncn2)CC1)N1CCCC1` [CBK091074], the viability at 28.5 h, 10 µM amounted to 99.9%. In the case of `FC(F)(F)c1cc(-c2cc(N3CCN(c4ccccn4)CC3)ncn2)cc(C(F)(F)F)c1` [CBK091082], the viability at 28.5 h, 10 µM stood at 94.5%.

As for `Clc1ccc(-c2cc(N3CCN(c4ccccn4)CC3)ncn2)cc1` [CBK091085], the viability at 28.5 h, 10 µM was determined as 112%. In the case of `CC(C)Cc1ccc(-c2cc(NCCc3ccccn3)ncn2)cc1` [CBK091088], the viability at 28.5 h, 10 µM is 99.6%.

Consider `Nc1ccc(C(=O)Nc2ccc(Nc3cc(-c4ccco4)ncn3)cc2)cc1` [CBK091099], for which the viability at 28.5 h, 10 µM worked out at 96.5%. As to `CC(=O)Nc1ccc(-c2cc(Nc3ccc(NC(=O)c4ccc(N)cc4)cc3)ncn2)cc1` [CBK091103], the viability at 28.5 h, 10 µM is 97%. `CC(C)(C)OC(=O)NCc1ccc(-c2cc(N3CCN(C(=O)c4ccco4)CC3)ncn2)cc1` [CBK091107]: the viability at 28.5 h, 10 µM was 98.3%.

With `O=C(c1ccco1)N1CCN(c2cc(-c3cc4ccccc4o3)ncn2)CC1` [CBK091114], the viability at 28.5 h, 10 µM amounted to 102%. The figure for `CN(C(=O)CN1CCN(c2cc(-c3cc(C(F)(F)F)cc(C(F)(F)F)c3)ncn2)CC1)c1ccccc1` [CBK091125] is 103%; for `CN(C(=O)CN1CCN(c2cc(-c3cc4ccccc4o3)ncn2)CC1)c1ccccc1` [CBK091128] it is 94%. As to `COc1ccccc1-c1cc(N2CCN(CC(=O)N(C)c3ccccc3)CC2)ncn1` [CBK091136], the viability at 28.5 h, 10 µM came out at 99%.

Take `CC(C)(C)OC(=O)Nc1ccc(Nc2cc(-c3ccc(F)c(F)c3)ncn2)cc1` [CBK091143]: the viability at 28.5 h, 10 µM stood at 90.1%. `Cc1ccc(Nc2cc(-c3cccc(N)c3)ncn2)cc1NS(C)(=O)=O` [CBK091145]: the viability at 28.5 h, 10 µM stood at 99.1%. For the compound `Cc1ccc(Nc2cc(-c3cccnc3)ncn2)cc1NS(C)(=O)=O` [CBK091147], the viability at 28.5 h, 10 µM was found to be 91.2%. On to `Cc1ccc(Nc2cc(-c3cc4ccccc4o3)ncn2)cc1NS(C)(=O)=O` [CBK091148], for which the viability at 28.5 h, 10 µM was 93.6%. Regarding `Cc1ccc(Nc2cc(-c3cccc4cccnc34)ncn2)cc1NS(C)(=O)=O` [CBK091152], the viability at 28.5 h, 10 µM amounted to 92.4%.

For `CN(C)c1ccc(-c2cc(N3CCN(S(=O)(=O)c4ccc(Cl)cc4)CC3)ncn2)cc1` [CBK091158], the viability at 28.5 h, 10 µM was 93.5%. The figure for `O=S(=O)(c1ccc(Cl)cc1)N1CCN(c2cc(-c3ccco3)ncn2)CC1` [CBK091161] is 111%.

Regarding `c1ccc(-c2cccc(-c3cc(N4CCN(CCN5CCCC5)CC4)ncn3)c2)cc1` [CBK091164], the viability at 28.5 h, 10 µM was found to be 99.7%. Take `c1ccc(-c2ccc(-c3cc(N4CCN(CCN5CCCC5)CC4)ncn3)cc2)cc1` [CBK091165]: the viability at 28.5 h, 10 µM is 99%. Take `c1ccc2sc(-c3cc(N4CCN(CCN5CCCC5)CC4)ncn3)cc2c1` [CBK091172]: the viability at 28.5 h, 10 µM was determined as 89.3%.

As for `COc1ccc(-c2cc(N3CCN(CCN4CCCC4)CC3)ncn2)cc1OC` [CBK091173], the viability at 28.5 h, 10 µM is 94.5%.

The term viability denotes a read-out of living cells in per cent, often relative to untreated cells.
